Where two headings read alike, the source gives them in different places.
Assays:
hGCGR = molecular target: T1, hGCGR (Homo sapiens, UniProt P47871); assay: Functional cAMP formation (HTRF) in HEK-293 clonal cells expressing hGCGR, 0.1% bovine casein, without or with 1.0% human serum albumin; type: cell-based; conditions: 37° C.
T1 construct: expressed in transfected cells
How it was run: (§1)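 Cells were stimulated with peptide for 30 min at 37° C, then intracellular cAMP was measured by competitive HTRF (665/620 nm ratio) and converted to nM using a cAMP standard curve. Relative EC50 and Emax came from four-parameter logistic fits of percent maximal response against peptide concentration.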

hGIPR = molecular target: T2, hGIPR (Homo sapiens, UniProt P48546); assay: Functional cAMP formation (HTRF) in HEK-293 clonal cells expressing hGIPR, 0.1% bovine casein, without or with 1.0% human serum albumin; type: cell-based; conditions: for Emax: percent of maximal response to GIP(1-42)NH2; for EC50: geometric mean
T2 construct: expressed in transfected cells
T2 sequence (P48546 22-466): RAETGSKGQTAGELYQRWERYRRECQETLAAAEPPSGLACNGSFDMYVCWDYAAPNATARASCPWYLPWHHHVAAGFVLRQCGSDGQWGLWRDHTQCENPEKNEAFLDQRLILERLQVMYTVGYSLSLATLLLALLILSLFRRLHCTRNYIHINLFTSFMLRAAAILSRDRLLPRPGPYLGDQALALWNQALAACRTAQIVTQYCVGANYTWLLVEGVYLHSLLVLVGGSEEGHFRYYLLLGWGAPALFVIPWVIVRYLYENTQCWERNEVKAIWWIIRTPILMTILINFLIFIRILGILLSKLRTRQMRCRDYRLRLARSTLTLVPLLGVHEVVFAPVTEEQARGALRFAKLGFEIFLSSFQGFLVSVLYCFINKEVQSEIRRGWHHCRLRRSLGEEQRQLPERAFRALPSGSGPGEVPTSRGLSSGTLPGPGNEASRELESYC
How it was run: as §1

[1] = 0.1% bovine casein and 1.0% human serum albumin, geometric mean, read-out: hGCGR EC50, nM (SEM, n)
[2] = cAMP, 0.1% bovine casein (no human serum albumin), geometric mean, read-out: hGCGR EC50, nM (SEM, n)
[3] = HEK293, 0.1% bovine casein and 1.0% human serum albumin, 37° C., read-out: hGIPR Emax, % ± SEM
[4] = cAMP, 37° C., 0.1% bovine casein (no human serum albumin), read-out: hGIPR EC50, nM (SEM, n)
[5] = hGCGR EC50, nM (SEM, n), 0.1% bovine casein and 1.0% human serum albumin, geometric mean
[6] = hGCGR EC50, nM (SEM, n), cAMP, 0.1% bovine casein (no human serum albumin), geometric mean
[7] = HEK293, read-out: hGIPR Emax, % ± SEM, 0.1% bovine casein and 1.0% human serum albumin, 37° C.
[8] = hGIPR EC50, nM (SEM, n), cAMP, 37° C., 0.1% bovine casein (no human serum albumin)

T1 sequence (P47871 26-477): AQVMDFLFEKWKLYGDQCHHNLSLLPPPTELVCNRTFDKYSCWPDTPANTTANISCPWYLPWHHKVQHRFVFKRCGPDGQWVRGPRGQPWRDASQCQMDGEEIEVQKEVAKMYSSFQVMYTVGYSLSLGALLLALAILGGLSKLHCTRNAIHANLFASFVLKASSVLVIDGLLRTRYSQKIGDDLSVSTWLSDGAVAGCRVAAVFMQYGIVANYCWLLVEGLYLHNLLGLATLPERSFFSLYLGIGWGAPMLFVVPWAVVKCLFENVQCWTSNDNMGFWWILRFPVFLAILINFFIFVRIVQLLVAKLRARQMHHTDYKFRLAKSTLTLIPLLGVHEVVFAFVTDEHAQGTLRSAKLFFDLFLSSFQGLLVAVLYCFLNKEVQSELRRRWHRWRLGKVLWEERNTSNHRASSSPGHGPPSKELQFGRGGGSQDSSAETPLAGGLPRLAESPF

CC[C@H](C)[C@H](NC(=O)[C@H](CC(C)C)NC(=O)[C@](C)(Cc1ccc(O)cc1)NC(=O)[C@@H](CCC(=O)O)NC(=O)[C@@H](NC(=O)[C@H](Cc1ccccc1)NC(=O)[C@H](CCCCNC(=O)COCCOCCNC(=O)COCCOCCNC(=O)CCCCCCCCCCCCC(=O)O)NC(=O)C(C)(C)NC(=O)[C@H](CCC(N)=O)NC(=O)[C@H](C)NC(=O)[C@H](CCCCNC(=O)COCCOCCNC(=O)COCCOCCNC(=O)CCCCCCCCCCCCC(=O)O)NC(=O)[C@H](CCCN)NC(=O)[C@H](CC(=O)O)NC(=O)[C@H](CC(C)C)NC(=O)[C@](C)(CC(C)C)NC(=O)[C@@H](NC(=O)[C@H](CO)NC(=O)[C@H](Cc1ccc2ccccc2c1)NC(=O)[C@H](CC(=O)O)NC(=O)[C@H](CO)NC(=O)[C@@H](NC(=O)[C@](C)(Cc1ccccc1F)NC(=O)[C@@H](NC(=O)CNC(=O)[C@H](CCC(=O)O)NC(=O)C(C)(C)NC(=O)[C@@H](N)Cc1ccc(O)cc1)[C@@H](C)O)[C@@H](C)O)[C@@H](C)CC)[C@@H](C)CC)C(=O)N[C@@H](CCC(=O)O)C(=O)NCC(=O)NCC(=O)N1CCC[C@H]1C(=O)N[C@@H](CO)C(=O)N[C@@H](CO)C(=O)NCC(=O)N[C@@H](C)C(=O)N1CCC[C@H]1C(=O)N1CCC[C@H]1C(=O)N1CCC[C@H]1C(=O)N[C@@H](CO)C(N)=O [Example 255]
EC50 (hGCGR; [1]): > 9950 nM
EC50 (hGCGR; [2]): > 9950 nM
Emax (hGIPR; [3]): 93.4%
EC50 (hGIPR; [4]): 0.0213 nM

CC[C@H](C)[C@H](NC(=O)[C@H](CC(C)C)NC(=O)[C@](C)(Cc1ccc(O)cc1)NC(=O)[C@@H](CCC(=O)O)NC(=O)[C@@H](NC(=O)[C@H](Cc1ccccc1)NC(=O)[C@H](CCC(=O)O)NC(=O)C(C)(C)NC(=O)[C@H](CCC(N)=O)NC(=O)[C@H](C)NC(=O)[C@H](CCCCNC(=O)COCCOCCNC(=O)COCCOCCNC(=O)CC[C@H](NC(=O)CCCCCCCCCCCCC(=O)O)C(=O)O)NC(=O)[C@H](CCCN)NC(=O)[C@H](CC(=O)O)NC(=O)[C@H](CC(C)C)NC(=O)[C@](C)(CC(C)C)NC(=O)[C@@H](NC(=O)[C@H](CO)NC(=O)[C@H](Cc1ccc(OC)cc1)NC(=O)[C@H](CC(=O)O)NC(=O)[C@H](CO)NC(=O)[C@@H](NC(=O)[C@](C)(Cc1ccccc1F)NC(=O)[C@@H](NC(=O)CNC(=O)[C@H](CCC(=O)O)NC(=O)C(C)(C)NC(=O)[C@@H](N)Cc1ccc(O)cc1)[C@@H](C)O)[C@@H](C)O)[C@@H](C)CC)[C@@H](C)CC)C(=O)N[C@@H](CCCCNC(=O)COCCOCCNC(=O)COCCOCCNC(=O)CC[C@H](NC(=O)CCCCCCCCCCCCC(=O)O)C(=O)O)C(=O)NCC(=O)NCC(=O)N1CCC[C@H]1C(=O)N[C@@H](CO)C(=O)N[C@@H](CO)C(=O)NCC(=O)N[C@@H](C)C(=O)N1CCC[C@H]1C(=O)N1CCC[C@H]1C(=O)N1CCC[C@H]1C(=O)N[C@@H](CO)C(N)=O [Example 260]
EC50 (hGCGR; [1]): > 9950 nM
EC50 (hGCGR; [2]): > 9950 nM
EC50 (hGIPR; 0.1% bovine casein and 1.0% human serum albumin, 37° C., read-out: hGIPR EC50, nM (SEM, n)): 3.27 nM
Emax (hGIPR; [3]): 83%
Emax (hGIPR; HEK293, cAMP, 37° C., 0.1% bovine casein, arithmetic mean, read-out: hGIPR Emax, % ± SEM): 113%
EC50 (hGIPR; [4]): 0.0239 nM

CC[C@H](C)[C@H](NC(=O)[C@H](CCCN)NC(=O)[C@H](CC(=O)O)NC(=O)[C@H](CC(C)C)NC(=O)[C@](C)(CC(C)C)NC(=O)[C@@H](NC(=O)[C@H](CO)NC(=O)[C@H](Cc1ccncc1)NC(=O)[C@H](CC(=O)O)NC(=O)[C@H](CO)NC(=O)[C@@H](NC(=O)[C@](C)(Cc1ccccc1F)NC(=O)[C@@H](NC(=O)CNC(=O)[C@H](CCC(=O)O)NC(=O)C(C)(C)NC(=O)[C@@H](N)Cc1ccc(O)cc1)[C@@H](C)O)[C@@H](C)O)[C@@H](C)CC)C(=O)N[C@@H](C)C(=O)N[C@@H](CCC(N)=O)C(=O)NC(C)(C)C(=O)N[C@@H](CCCCNC(=O)COCCOCCNC(=O)COCCOCCNC(=O)CC[C@H](NC(=O)CCCCCCCCCOc1ccc(C(=O)O)cc1)C(=O)O)C(=O)N[C@@H](Cc1ccccc1)C(=O)N[C@H](C(=O)N[C@H](CCC(=O)O)C(=O)N[C@@](C)(Cc1ccc(O)cc1)C(=O)N[C@@H](CC(C)C)C(=O)N[C@H](C(=O)N[C@@H](CCC(=O)O)C(=O)NCC(=O)NCC(=O)N1CCC[C@H]1C(=O)N[C@@H](CO)C(=O)N[C@@H](CO)C(=O)NCC(=O)N[C@@H](C)C(=O)N1CCC[C@H]1C(=O)N1CCC[C@H]1C(=O)N1CCC[C@H]1C(=O)N[C@@H](CO)C(=O)N[C@@H](CCCCNC(=O)COCCOCCNC(=O)COCCOCCNC(=O)CC[C@H](NC(=O)CCCCCCCCCOc1ccc(C(=O)O)cc1)C(=O)O)C(N)=O)[C@@H](C)CC)[C@@H](C)CC [Example 276]
EC50 (hGCGR; [5]): > 9950 nM
EC50 (hGCGR; [6]): > 9950 nM
Emax (hGIPR; [7]): 91.4%
EC50 (hGIPR; [8]): 0.0134 nM

CC[C@H](C)[C@H](NC(=O)[C@H](CC(C)C)NC(=O)[C@](C)(Cc1ccc(O)cc1)NC(=O)[C@@H](CCC(=O)O)NC(=O)[C@@H](NC(=O)[C@H](Cc1ccccc1)NC(=O)[C@H](CCC(=O)O)NC(=O)C(C)(C)NC(=O)[C@H](CCC(N)=O)NC(=O)[C@H](C)NC(=O)[C@H](CCCCNC(=O)COCCOCCNC(=O)COCCOCCNC(=O)CC[C@H](NC(=O)CCCCCCCCCOc1ccc(C(=O)O)cc1)C(=O)O)NC(=O)[C@H](CCCN)NC(=O)[C@H](CC(=O)O)NC(=O)[C@H](CC(C)C)NC(=O)[C@](C)(CC(C)C)NC(=O)[C@@H](NC(=O)[C@H](CO)NC(=O)[C@H](Cc1ccc2ccccc2c1)NC(=O)[C@H](CC(=O)O)NC(=O)[C@H](CO)NC(=O)[C@@H](NC(=O)[C@](C)(Cc1ccccc1F)NC(=O)[C@@H](NC(=O)CNC(=O)[C@H](CCC(=O)O)NC(=O)C(C)(C)NC(=O)[C@@H](N)Cc1ccc(O)cc1)[C@@H](C)O)[C@@H](C)O)[C@@H](C)CC)[C@@H](C)CC)C(=O)N[C@@H](CCCCNC(=O)COCCOCCNC(=O)COCCOCCNC(=O)CC[C@H](NC(=O)CCCCCCCCCOc1ccc(C(=O)O)cc1)C(=O)O)C(=O)NCC(=O)NCC(=O)N1CCC[C@H]1C(=O)N[C@@H](CO)C(=O)N[C@@H](CO)C(=O)NCC(=O)N[C@@H](C)C(=O)N1CCC[C@H]1C(=O)N1CCC[C@H]1C(=O)N1CCC[C@H]1C(=O)N[C@@H](CO)C(N)=O [Example 282]
EC50 (hGCGR; [5]): > 9950 nM
EC50 (hGCGR; [6]): > 9950 nM
Emax (hGIPR; [7]): 84.4%
EC50 (hGIPR; hGIPR EC50, nM (SEM, n), 0.1% bovine casein and 1.0% human serum albumin, 37° C.): 1.44 nM
EC50 (hGIPR; [8]): 0.0193 nM

CCCC[C@H](NC(=O)[C@H](CC(=O)O)NC(=O)[C@H](CO)NC(=O)[C@@H](NC(=O)[C@](C)(Cc1ccccc1F)NC(=O)[C@@H](NC(=O)CNC(=O)[C@H](CCC(=O)O)NC(=O)C(C)(C)NC(=O)[C@@H](N)Cc1ccc(O)cc1)[C@@H](C)O)[C@@H](C)O)C(=O)N[C@@H](CO)C(=O)N[C@H](C(=O)N[C@@](C)(CC(C)C)C(=O)N[C@@H](CC(C)C)C(=O)N[C@@H](CC(=O)O)C(=O)N[C@@H](CCCN)C(=O)N[C@@H](CCCCNC(=O)COCCOCCNC(=O)COCCOCCNC(=O)CC[C@H](NC(=O)CCCCCCCCCOc1ccc(C(=O)O)cc1)C(=O)O)C(=O)N[C@@H](C)C(=O)N[C@@H](CCC(N)=O)C(=O)NC(C)(C)C(=O)N[C@@H](CCC(=O)O)C(=O)N[C@@H](Cc1ccccc1)C(=O)N[C@H](C(=O)N[C@H](CCC(=O)O)C(=O)N[C@@](C)(Cc1ccc(O)cc1)C(=O)N[C@@H](CC(C)C)C(=O)N[C@H](C(=O)N[C@@H](CCCCNC(=O)COCCOCCNC(=O)COCCOCCNC(=O)CC[C@H](NC(=O)CCCCCCCCCOc1ccc(C(=O)O)cc1)C(=O)O)C(=O)NCC(=O)NCC(=O)N1CCC[C@H]1C(=O)N[C@@H](CO)C(=O)N[C@@H](CO)C(=O)NCC(=O)N[C@@H](C)C(=O)N1CCC[C@H]1C(=O)N1CCC[C@H]1C(=O)N1CCC[C@H]1C(=O)N[C@@H](CO)C(N)=O)[C@@H](C)CC)[C@@H](C)CC)[C@@H](C)CC [Example 328]
EC50 (hGCGR; [6]): > 9950 nM
EC50 (hGCGR; hGCGR EC50, nM (SEM, n), cAMP, 0.1% bovine casein and 1.0% human serum albumin, geometric mean (SEM, n)): > 9950 nM
Emax (hGIPR; HEK293, read-out: hGIPR Emax, % ± SEM, cAMP, 37° C., 0.1% bovine casein and 1.0% human serum albumin): 85.5%
